PubChem BioAssay AID1259407 (Chemical Carcinogenesis Research Information System (CCRIS), 2018)
Active and inactive are the calls of the source. No rule for the calls is given here.

Tested on: CCRIS mutagenicity, Ames/micronucleus/aberration tests
Test: CCRIS mutagenicity studies
[1] = Test System: AMES SALMONELLA TYPHIMURIUM, Strain/Indicator: TA98, Metabolic Activation: NONE, Method: PREINCUBATION
[2] = Test System: AMES SALMONELLA TYPHIMURIUM, Strain/Indicator: TA100, Metabolic Activation: NONE, Method: PREINCUBATION
[3] = Test System: MOUSE LYMPHOMA, Strain/Indicator: L5178Y (TK+/TK-), Metabolic Activation: RAT, LIVER, S-9, AROCLOR 1254, Method: SUSPENSION/PLATE

With `Nc1ccc(CO)c([N+](=O)[O-])c1` as the molecule, how does the mutagenic call [1] read?
The mutagenic call was “active; positive”.

What about the mutagenic call (Test System: AMES SALMONELLA TYPHIMURIUM, Strain/Indicator: TA98, Metabolic Activation: RAT, LIVER, S-9, PHENOBARBITAL AND 5,6-BENZOFLAVONE, Method: PREINCUBATION) of the same molecule?
The mutagenic call was “active; positive”.

What about the mutagenic call [2] of the same molecule?
The mutagenic call was “active; positive”.

And the mutagenic call (Test System: AMES SALMONELLA TYPHIMURIUM, Strain/Indicator: TA100, Metabolic Activation: RAT, LIVER, S-9, PHENOBARBITAL AND 5,6-BENZOFLAVONE, Method: PREINCUBATION)?
The mutagenic call was “active; positive”.

For `CCCCN(CCC)N=O`, which mutagenic call (Test System: AMES SALMONELLA TYPHIMURIUM, Strain/Indicator: TA100, Metabolic Activation: RAT, LIVER, S-9, KC500 OR PHENOBARBITAL, Method: LIQUID SUSPENSION) is on record?
Its mutagenic call is “active; positive”.

And the mutagenic call [3]?
Its mutagenic call is “active; positive”.

Which mutagenic call [1] does the source give for `[O]=[W](=[O])([OH])[OH]` here?
Its mutagenic call is “inactive; negative”.

And the mutagenic call (Test System: AMES SALMONELLA TYPHIMURIUM, Strain/Indicator: TA98, Metabolic Activation: RAT LIVER S-9, PHENOBARBITAL AND BETA-NAPHTHOFLAVONE, Method: PREINCUBATION)?
The mutagenic call was “inactive; negative”.

What about the mutagenic call [2] of the same molecule?
Its mutagenic call is “inactive; negative”.

What about the mutagenic call (Test System: AMES SALMONELLA TYPHIMURIUM, Strain/Indicator: TA100, Metabolic Activation: RAT LIVER S-9, PHENOBARBITAL AND BETA-NAPHTHOFLAVONE, Method: PREINCUBATION) of the same molecule?
Its mutagenic call is “inactive; negative”.

And the mutagenic call (Test System: AMES SALMONELLA TYPHIMURIUM, Strain/Indicator: TA1535, Metabolic Activation: NONE, Method: PREINCUBATION)?
The mutagenic call was “inactive; negative”.

What about the mutagenic call (Test System: AMES SALMONELLA TYPHIMURIUM, Strain/Indicator: TA1535, Metabolic Activation: RAT LIVER S-9, PHENOBARBITAL AND BETA-NAPHTHOFLAVONE, Method: PREINCUBATION) of the same molecule?
The mutagenic call was “inactive; negative”.

And the mutagenic call (Test System: AMES SALMONELLA TYPHIMURIUM, Strain/Indicator: TA1537, Metabolic Activation: NONE, Method: PREINCUBATION)?
Its mutagenic call is “inactive; negative”.

What about the mutagenic call (Test System: AMES SALMONELLA TYPHIMURIUM, Strain/Indicator: TA1537, Metabolic Activation: RAT LIVER S-9, PHENOBARBITAL AND BETA-NAPHTHOFLAVONE, Method: PREINCUBATION) of the same molecule?
The mutagenic call was “inactive; negative”.

What about the mutagenic call (Test System: AMES SALMONELLA TYPHIMURIUM, Strain/Indicator: TA1538, Metabolic Activation: NONE, Method: PREINCUBATION) of the same molecule?
The mutagenic call was “inactive; negative”.

And the mutagenic call (Test System: AMES SALMONELLA TYPHIMURIUM, Strain/Indicator: TA1538, Metabolic Activation: RAT LIVER S-9, PHENOBARBITAL AND BETA-NAPHTHOFLAVONE, Method: PREINCUBATION)?
Its mutagenic call is “inactive; negative”.

And the mutagenic call (Test System: E.COLI, Strain/Indicator: WP2UVRA, Metabolic Activation: NONE, Method: PREINCUBATION)?
The mutagenic call was “inactive; negative”.

What about the mutagenic call (Test System: E.COLI, Strain/Indicator: WP2UVRA, Metabolic Activation: RAT LIVER S-9, PHENOBARBITAL AND BETA-NAPHTHOFLAVONE, Method: PREINCUBATION) of the same molecule?
The mutagenic call was “inactive; negative”.

Which results are given for `Cc1ccc2nc(-c3ccc(N)cc3)sc2c1`?
mutagenic call (Test System: AMES SALMONELLA TYPHIMURIUM, Strain/Indicator: 1537, Metabolic Activation: NONE, Method: STANDARD PLATE): inactive; negative; mutagenic call (Test System: AMES SALMONELLA TYPHIMURIUM, Strain/Indicator: TA98, Metabolic Activation: HAMSTER, LIVER, S-9, AROCLOR 1254, Method: STANDARD PLATE): active; positive; mutagenic call (Test System: AMES SALMONELLA TYPHIMURIUM, Strain/Indicator: TA98, Metabolic Activation: NONE, Method: STANDARD PLATE): inactive; negative; mutagenic call (Test System: AMES SALMONELLA TYPHIMURIUM, Strain/Indicator: TA98, Metabolic Activation: RAT, LIVER, S-9, AROCLOR 1254, Method: STANDARD PLATE): active; positive; mutagenic call (Test System: AMES SALMONELLA TYPHIMURIUM, Strain/Indicator: TA100, Metabolic Activation: HAMSTER, LIVER, S-9, AROCLOR 1254, Method: STANDARD PLATE): active; positive; mutagenic call (Test System: AMES SALMONELLA TYPHIMURIUM, Strain/Indicator: TA100, Metabolic Activation: NONE, Method: STANDARD PLATE): inactive; negative; mutagenic call (Test System: AMES SALMONELLA TYPHIMURIUM, Strain/Indicator: TA100, Metabolic Activation: RAT, LIVER, S-9, AROCLOR 1254, Method: STANDARD PLATE): active; positive; mutagenic call (Test System: AMES SALMONELLA TYPHIMURIUM, Strain/Indicator: TA1535, Metabolic Activation: HAMSTER, LIVER, S-9, AROCLOR 1254, Method: STANDARD PLATE): inactive; negative; mutagenic call (Test System: AMES SALMONELLA TYPHIMURIUM, Strain/Indicator: TA1535, Metabolic Activation: RAT, LIVER, S-9, AROCLOR 1254, Method: STANDARD PLATE): inactive; negative; mutagenic call (Test System: AMES SALMONELLA TYPHIMURIUM, Strain/Indicator: TA1537, Metabolic Activation: HAMSTER, LIVER, S-9, AROCLOR 1254, Method: STANDARD PLATE): active; positive; mutagenic call (Test System: AMES SALMONELLA TYPHIMURIUM, Strain/Indicator: TA1537, Metabolic Activation: RAT, LIVER, S-9, AROCLOR 1254, Method: STANDARD PLATE): active; positive; mutagenic call (Test System: AMES SALMONELLA TYPHIMURIUM, Strain/Indicator: TA1538, Metabolic Activation: HAMSTER, LIVER, S-9, AROCLOR 1254, Method: STANDARD PLATE): active; positive; mutagenic call (Test System: AMES SALMONELLA TYPHIMURIUM, Strain/Indicator: TA1538, Metabolic Activation: NONE, Method: STANDARD PLATE): inactive; negative; mutagenic call (Test System: AMES SALMONELLA TYPHIMURIUM, Strain/Indicator: TA1538, Metabolic Activation: RAT, LIVER, S-9, AROCLOR 1254, Method: STANDARD PLATE): active; positive; mutagenic call (Test System: MOUSE LYMPHOMA, Strain/Indicator: L5178Y (TK+/TK-), Metabolic Activation: NONE, Method: SUSPENSION/PLATE): active; positive. reevaluation of results: positive; mutagenic call [3]: active; positive. reevaluation of results: positive
